According to PubChem BioAssay (NCI):
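Step 1: Grow cells in 96-well plates. Step 2: Expose to compound for 48 hours at 5 concentrations. Step 3: Interpolate endpoints linearly; if unreached, use highest concentration. TGI: concentration producing complete growth inhibition.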

Legend:
Experiment in all cases: DTP human tumour cell line panel, 48 h
SK-MEL-5 melanoma = system: SK-MEL-5 melanoma
HOP-62 NSCLC = system: HOP-62 NSCLC
MALME-3M melanoma = system: MALME-3M melanoma
KM12 colon = system: KM12 colon
RXF 393 renal = system: RXF 393 renal
U251 CNS = system: U251 CNS
NCI-H23 lung = system: NCI-H23 lung
CAKI-1 renal = system: CAKI-1 renal
MDA-MB-435 = system: MDA-MB-435
IGROV1 ovarian = system: IGROV1 ovarian

SMILES: C=CCn1c(-c2ccc(Cl)cc2)csc1=Nc1ccccc1OC
- TGI (SK-MEL-5 melanoma): 8.11 µM
- TGI (HOP-62 NSCLC): > 100 µM
- TGI (MALME-3M melanoma): > 100 µM
- TGI (KM12 colon): > 100 µM
- TGI (RXF 393 renal): > 100 µM
- TGI (U251 CNS): > 100 µM
- TGI (NCI-H23 lung): > 100 µM
- TGI (CAKI-1 renal): > 100 µM
- TGI (MDA-MB-435): > 100 µM
- TGI (IGROV1 ovarian): > 100 µM

SMILES: Cc1nc(Nc2ccc(Cl)c(Cl)c2)sc1C(=O)/C=C/c1ccc2c(c1)OCO2
- TGI (SK-MEL-5 melanoma): 97.4 µM
- TGI (HOP-62 NSCLC): 36.5 µM
- TGI (MALME-3M melanoma): > 100 µM
- TGI (KM12 colon): 50 µM
- TGI (RXF 393 renal): 29.3 µM
- TGI (U251 CNS): 49 µM
- TGI (NCI-H23 lung): 49.5 µM
- TGI (CAKI-1 renal): 32.6 µM
- TGI (MDA-MB-435): 48.4 µM
- TGI (IGROV1 ovarian): > 100 µM

SMILES: C/C(O[Si](C(C)C)(C(C)C)C(C)C)=C(\C)C(=O)N(C)c1ccccc1Cl
- TGI (SK-MEL-5 melanoma): > 100 µM
- TGI (HOP-62 NSCLC): > 100 µM
- TGI (MALME-3M melanoma): > 100 µM
- TGI (KM12 colon): > 100 µM
- TGI (RXF 393 renal): > 100 µM
- TGI (U251 CNS): > 100 µM
- TGI (NCI-H23 lung): > 100 µM
- TGI (CAKI-1 renal): > 100 µM
- TGI (MDA-MB-435): > 100 µM
- TGI (IGROV1 ovarian): > 100 µM

SMILES: COCOc1cc(OC)ccc1C/C(=N/O)C(=O)OC
- TGI (SK-MEL-5 melanoma): > 100 µM
- TGI (HOP-62 NSCLC): > 100 µM
- TGI (MALME-3M melanoma): > 100 µM
- TGI (KM12 colon): > 100 µM
- TGI (RXF 393 renal): > 100 µM
- TGI (U251 CNS): > 100 µM
- TGI (NCI-H23 lung): > 100 µM
- TGI (CAKI-1 renal): > 100 µM
- TGI (MDA-MB-435): > 100 µM
- TGI (IGROV1 ovarian): > 100 µM

SMILES: Cc1cn(C2OC(CO)C(O)C2F)c(=O)[nH]c1=O (stereo not given)
- TGI (SK-MEL-5 melanoma): > 100 µM
- TGI (HOP-62 NSCLC): > 100 µM
- TGI (MALME-3M melanoma): > 100 µM
- TGI (KM12 colon): > 100 µM
- TGI (RXF 393 renal): > 100 µM
- TGI (U251 CNS): > 100 µM
- TGI (NCI-H23 lung): > 100 µM
- TGI (CAKI-1 renal): > 100 µM
- TGI (MDA-MB-435): > 100 µM
- TGI (IGROV1 ovarian): > 100 µM

SMILES: COc1ccc(C2C3=C(COC3=O)OC(C)(C)Oc3cc4c(cc32)OCO4)cc1OC (stereo not given)
- TGI (SK-MEL-5 melanoma): > 74.3 µM
- TGI (HOP-62 NSCLC): > 100 µM
- TGI (MALME-3M melanoma): > 100 µM
- TGI (KM12 colon): 67.2 µM
- TGI (RXF 393 renal): 68.8 µM
- TGI (U251 CNS): > 100 µM
- TGI (NCI-H23 lung): > 100 µM
- TGI (CAKI-1 renal): > 100 µM
- TGI (MDA-MB-435): 41.3 µM
- TGI (IGROV1 ovarian): > 100 µM

SMILES: C=CC[C@]1(C2=NC(C)(C)CO2)c2ccccc2-c2ccccc2[C@H]1C(C)=O
- TGI (SK-MEL-5 melanoma): 12.7 µM
- TGI (HOP-62 NSCLC): 32.7 µM
- TGI (MALME-3M melanoma): 21 µM
- TGI (KM12 colon): 38.6 µM
- TGI (RXF 393 renal): 15.8 µM
- TGI (U251 CNS): 21.6 µM
- TGI (NCI-H23 lung): > 45.3 µM
- TGI (CAKI-1 renal): > 55 µM
- TGI (MDA-MB-435): 14.7 µM
- TGI (IGROV1 ovarian): > 48.6 µM

SMILES: CCN(CC)CCN1C(=O)C(=O)N(c2cccc3ccccc23)C1=O
- TGI (SK-MEL-5 melanoma): > 10 µM
- TGI (HOP-62 NSCLC): > 10 µM
- TGI (MALME-3M melanoma): > 10 µM
- TGI (KM12 colon): > 10 µM
- TGI (RXF 393 renal): > 10 µM
- TGI (U251 CNS): > 10 µM
- TGI (NCI-H23 lung): > 10 µM
- TGI (CAKI-1 renal): > 10 µM
- TGI (MDA-MB-435): > 10 µM
- TGI (IGROV1 ovarian): > 10 µM

SMILES: O=C1NC(=Nc2ccccc2Cl)N/C1=C\c1ccc(Cl)cc1Cl
- TGI (SK-MEL-5 melanoma): > 100 µM
- TGI (HOP-62 NSCLC): > 100 µM
- TGI (MALME-3M melanoma): > 100 µM
- TGI (KM12 colon): > 100 µM
- TGI (RXF 393 renal): 40.1 µM
- TGI (U251 CNS): > 100 µM
- TGI (NCI-H23 lung): > 100 µM
- TGI (CAKI-1 renal): > 100 µM
- TGI (MDA-MB-435): > 100 µM
- TGI (IGROV1 ovarian): > 100 µM

SMILES: O=C(C1OC1c1cccc([N+](=O)[O-])c1)C12CC3CC(CC(C3)C1)C2 (stereo not given)
- TGI (SK-MEL-5 melanoma): 22.9 µM
- TGI (HOP-62 NSCLC): 24.3 µM
- TGI (MALME-3M melanoma): 27.9 µM
- TGI (KM12 colon): 13.9 µM
- TGI (RXF 393 renal): 16.8 µM
- TGI (U251 CNS): 9.64 µM
- TGI (NCI-H23 lung): 17.7 µM
- TGI (CAKI-1 renal): 24.5 µM
- TGI (MDA-MB-435): 12.2 µM
- TGI (IGROV1 ovarian): 20.2 µM

SMILES: C[n+]1cn(-c2nc3ccccc3nc2[N-]S(=O)(=O)c2ccccc2)c2ccccc21
- TGI (SK-MEL-5 melanoma): > 100 µM
- TGI (HOP-62 NSCLC): > 100 µM
- TGI (MALME-3M melanoma): > 100 µM
- TGI (KM12 colon): > 100 µM
- TGI (RXF 393 renal): > 100 µM
- TGI (U251 CNS): > 100 µM
- TGI (NCI-H23 lung): > 100 µM
- TGI (CAKI-1 renal): > 100 µM
- TGI (MDA-MB-435): > 100 µM
- TGI (IGROV1 ovarian): > 100 µM

SMILES: CC(=O)NC1(C)C(C)C2CC1C(C)C2(C)C (stereo not given)
- TGI (SK-MEL-5 melanoma): > 100 µM
- TGI (HOP-62 NSCLC): > 100 µM
- TGI (MALME-3M melanoma): > 100 µM
- TGI (KM12 colon): > 100 µM
- TGI (RXF 393 renal): > 100 µM
- TGI (U251 CNS): > 100 µM
- TGI (NCI-H23 lung): > 100 µM
- TGI (CAKI-1 renal): > 100 µM
- TGI (MDA-MB-435): > 100 µM
- TGI (IGROV1 ovarian): > 100 µM

SMILES: COc1cc(OC)c(C2(c3c(OC(C)C)c(=O)c3=O)SCCCS2)cc1OC
- TGI (SK-MEL-5 melanoma): > 100 µM
- TGI (HOP-62 NSCLC): > 100 µM
- TGI (MALME-3M melanoma): > 100 µM
- TGI (KM12 colon): > 100 µM
- TGI (RXF 393 renal): > 100 µM
- TGI (U251 CNS): > 100 µM
- TGI (NCI-H23 lung): > 100 µM
- TGI (CAKI-1 renal): > 100 µM
- TGI (MDA-MB-435): > 100 µM
- TGI (IGROV1 ovarian): > 100 µM

SMILES: O=[N+]([O-])C(C(Cl)=C(Cl)Cl)=C(n1cncn1)n1cncn1
- TGI (SK-MEL-5 melanoma): 31.8 µM
- TGI (HOP-62 NSCLC): > 100 µM
- TGI (MALME-3M melanoma): 31.2 µM
- TGI (KM12 colon): > 100 µM
- TGI (RXF 393 renal): 43.4 µM
- TGI (U251 CNS): > 87.1 µM
- TGI (NCI-H23 lung): 54.2 µM
- TGI (CAKI-1 renal): 11.4 µM
- TGI (MDA-MB-435): > 71.8 µM
- TGI (IGROV1 ovarian): 39.7 µM

SMILES: C#C[C@]1(O)CC[C@H]2[C@@H]3CCC4=C/C(=N/OC(=O)c5cccc6c(=O)c7ccccc7[nH]c56)CCC4[C@H]3CC[C@@]21CC (stereo not given in full)
- TGI (SK-MEL-5 melanoma): > 53.1 µM
- TGI (HOP-62 NSCLC): > 100 µM
- TGI (MALME-3M melanoma): > 100 µM
- TGI (KM12 colon): > 100 µM
- TGI (RXF 393 renal): 12.6 µM
- TGI (U251 CNS): > 100 µM
- TGI (NCI-H23 lung): > 100 µM
- TGI (CAKI-1 renal): > 85 µM
- TGI (MDA-MB-435): > 100 µM
- TGI (IGROV1 ovarian): > 100 µM

SMILES: O=C1NC(=Nc2ccccc2)C(=Nc2ccccc2)N1c1ccccc1
- TGI (SK-MEL-5 melanoma): 29.7 µM
- TGI (HOP-62 NSCLC): 32.5 µM
- TGI (MALME-3M melanoma): 31.6 µM
- TGI (KM12 colon): 32.8 µM
- TGI (RXF 393 renal): 29.2 µM
- TGI (U251 CNS): 28.9 µM
- TGI (NCI-H23 lung): 30.8 µM
- TGI (CAKI-1 renal): 31.7 µM
- TGI (MDA-MB-435): 29.7 µM
- TGI (IGROV1 ovarian): 31 µM

SMILES: COC(=O)CNC(=O)CCC(C)[C@H]1CCC2C3C(C[C@H](OC(C)=O)[C@@]21C)[C@@]1(C)CCC2(C[C@H]1C[C@H]3OC(C)=O)OOC1(CCCCC1)OO2 (stereo not given in full)
- TGI (SK-MEL-5 melanoma): 8.12 µM
- TGI (HOP-62 NSCLC): 1.73 µM
- TGI (MALME-3M melanoma): 6.22 µM
- TGI (KM12 colon): 3.64 µM
- TGI (RXF 393 renal): 4.23 µM
- TGI (U251 CNS): 3.41 µM
- TGI (NCI-H23 lung): 3.64 µM
- TGI (CAKI-1 renal): 3.78 µM
- TGI (MDA-MB-435): 4.06 µM
- TGI (IGROV1 ovarian): 2.98 µM

SMILES: COC(=O)C1(O)C(c2ccccc2)NC2(C)CCCC21 (stereo not given)
- TGI (SK-MEL-5 melanoma): > 100 µM
- TGI (HOP-62 NSCLC): > 100 µM
- TGI (MALME-3M melanoma): > 100 µM
- TGI (KM12 colon): > 100 µM
- TGI (RXF 393 renal): > 100 µM
- TGI (U251 CNS): > 100 µM
- TGI (NCI-H23 lung): > 100 µM
- TGI (CAKI-1 renal): > 100 µM
- TGI (MDA-MB-435): > 100 µM
- TGI (IGROV1 ovarian): > 100 µM

SMILES: COc1ccc2c(c1OC)C(=O)O[C@@H]2[C@H]1c2c(cc3c(c2OC)OCO3)CCN1C
- TGI (SK-MEL-5 melanoma): > 100 µM
- TGI (HOP-62 NSCLC): > 100 µM
- TGI (MALME-3M melanoma): 79.3 µM
- TGI (KM12 colon): > 100 µM
- TGI (RXF 393 renal): > 100 µM
- TGI (U251 CNS): > 100 µM
- TGI (NCI-H23 lung): > 100 µM
- TGI (CAKI-1 renal): > 100 µM
- TGI (MDA-MB-435): 32.2 µM
- TGI (IGROV1 ovarian): > 100 µM
